Laboratory results reported in PubChem BioAssay AID1918994 (Molecular Pharmacology Branch, DTP, NCI, 2023).

System: 292921-168-R-J2-PDC complex spheroid growth
Assay: Anticancer human tumor 292921-168-R-J2-PDC patient-derived pancreatic carcinoma cell line growth inhibition [AhR]
Settings: for IC50: curve of first compound; for viability, T/C: stronger effect = lower value
Method in brief: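 Agents were dosed in half-log steps down from roughly clinical Cmax, or from 10 microM where Cmax was unknown, alone and with AhR antagonists. Read-out: percent test/control growth of tumor spheroids containing HUVEC and MSC stromal cells.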
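Also: spheroids exposed to compounds for seven days after three days of growth.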

Q: Which IC50 (second compound 0.1 µM) does the source give for CC1(C)CCC(CN2CCN(c3ccc(C(=O)NS(=O)(=O)c4ccc(NCC5CCOCC5)c([N+](=O)[O-])c4)c(Oc4cnc5[nH]ccc5c4)c3)CC2)=C(c2ccc(Cl)cc2)C1 + Cc1cncc(-c2nc(NCCc3c[nH]c4ccccc34)c3ncn(C(C)C)c3n2)c1 here?
A: Its IC50 is 6.87 µM.

Q: And the IC50 (second compound 0.316 µM)?
A: The IC50 was 6.72 µM.

Q: What about the IC50 (second compound 1 µM) of the same compound?
A: The IC50 was 6.79 µM.

Q: What about the IC50 (second compound 3.16 µM) of the same compound?
A: The IC50 was 5.56 µM.

Q: What about the IC50 (second compound 10 µM) of the same compound?
A: The IC50 was 3.33 µM.

Q: What about the viability, T/C (second compound 0.1 µM, first compound 0.0316 µM) of the same compound?
A: Its viability, T/C is 101%.

Q: What about the viability, T/C (second compound 0.1 µM, first compound 0.1 µM) of the same compound?
A: Its viability, T/C is 96.2%.

Q: What about the viability, T/C (second compound 0.1 µM, first compound 0.316 µM) of the same compound?
A: The viability, T/C was 92.9%.

Q: And the viability, T/C (second compound 0.1 µM, first compound 1 µM)?
A: Its viability, T/C is 105%.

Q: What about the viability, T/C (second compound 0.1 µM, first compound 3.16 µM) of the same compound?
A: Its viability, T/C is 99.4%.

Q: What about the viability, T/C (second compound 0.1 µM, first compound 10 µM) of the same compound?
A: The viability, T/C was 26.2%.

Q: And the viability, T/C (second compound 0.316 µM, first compound 0.0316 µM)?
A: The viability, T/C was 96.6%.

Q: And the viability, T/C (second compound 0.316 µM, first compound 0.1 µM)?
A: Its viability, T/C is 104%.

Q: What about the viability, T/C (second compound 0.316 µM, first compound 0.316 µM) of the same compound?
A: The viability, T/C was 105%.

Q: What about the viability, T/C (second compound 0.316 µM, first compound 1 µM) of the same compound?
A: Its viability, T/C is 90.6%.

Q: What about the viability, T/C (second compound 0.316 µM, first compound 3.16 µM) of the same compound?
A: The viability, T/C was 95.1%.

Q: And the viability, T/C (second compound 0.316 µM, first compound 10 µM)?
A: The viability, T/C was 26.1%.

Q: What about the viability, T/C (second compound 1 µM, first compound 0.0316 µM) of the same compound?
A: The viability, T/C was 80.2%.

Q: What about the viability, T/C (second compound 1 µM, first compound 0.1 µM) of the same compound?
A: The viability, T/C was 91.7%.

Q: What about the viability, T/C (second compound 1 µM, first compound 0.316 µM) of the same compound?
A: Its viability, T/C is 90.1%.

Q: What about the viability, T/C (second compound 1 µM, first compound 1 µM) of the same compound?
A: The viability, T/C was 96.5%.

Q: What about the viability, T/C (second compound 1 µM, first compound 3.16 µM) of the same compound?
A: Its viability, T/C is 102%.

Q: And the viability, T/C (second compound 1 µM, first compound 10 µM)?
A: The viability, T/C was 28.6%.

Q: What about the viability, T/C (second compound 3.16 µM, first compound 0.0316 µM) of the same compound?
A: The viability, T/C was 67.9%.

Q: And the viability, T/C (second compound 3.16 µM, first compound 0.1 µM)?
A: Its viability, T/C is 76.3%.

Q: What about the viability, T/C (second compound 3.16 µM, first compound 0.316 µM) of the same compound?
A: The viability, T/C was 80.6%.

Q: What about the viability, T/C (second compound 3.16 µM, first compound 1 µM) of the same compound?
A: Its viability, T/C is 77.6%.

Q: And the viability, T/C (second compound 3.16 µM, first compound 3.16 µM)?
A: The viability, T/C was 79.7%.

Q: What about the viability, T/C (second compound 3.16 µM, first compound 10 µM) of the same compound?
A: Its viability, T/C is 22.3%.

Q: And the viability, T/C (second compound 10 µM, first compound 0.0316 µM)?
A: Its viability, T/C is 54.9%.

Q: And the viability, T/C (second compound 10 µM, first compound 0.1 µM)?
A: The viability, T/C was 52.7%.

Q: And the viability, T/C (second compound 10 µM, first compound 0.316 µM)?
A: Its viability, T/C is 52.9%.

Q: And the viability, T/C (second compound 10 µM, first compound 1 µM)?
A: Its viability, T/C is 50%.

Q: And the viability, T/C (second compound 10 µM, first compound 3.16 µM)?
A: Its viability, T/C is 51.4%.

Q: And the viability, T/C (second compound 10 µM, first compound 10 µM)?
A: The viability, T/C was 26.8%.

Q: How did the IC50 (second compound 0.1 µM) turn out when CCN(c1cc(-c2ccc(CN3CCOCC3)cc2)cc(C(=O)NCc2c(C)cc(C)[nH]c2=O)c1C)C1CCOCC1 + Cc1cncc(-c2nc(NCCc3c[nH]c4ccccc34)c3ncn(C(C)C)c3n2)c1 was run?
A: Its IC50 is > 3 µM.

Q: And the IC50 (second compound 0.316 µM)?
A: Its IC50 is > 3 µM.

Q: And the IC50 (second compound 1 µM)?
A: The IC50 was > 3 µM.

Q: What about the IC50 (second compound 3.16 µM) of the same compound?
A: The IC50 was > 3 µM.

Q: And the IC50 (second compound 10 µM)?
A: Its IC50 is 0.034 µM.

Q: What about the viability, T/C (second compound 0.1 µM, first compound 0.00949 µM) of the same compound?
A: The viability, T/C was 93.8%.

Q: What about the viability, T/C (second compound 0.1 µM, first compound 0.03 µM) of the same compound?
A: The viability, T/C was 94.5%.

Q: And the viability, T/C (second compound 0.1 µM, first compound 0.0949 µM)?
A: The viability, T/C was 92.7%.

Q: What about the viability, T/C (second compound 0.1 µM, first compound 0.3 µM) of the same compound?
A: The viability, T/C was 84.9%.

Q: And the viability, T/C (second compound 0.1 µM, first compound 0.949 µM)?
A: Its viability, T/C is 82.7%.

Q: What about the viability, T/C (second compound 0.1 µM, first compound 3 µM) of the same compound?
A: The viability, T/C was 67.3%.

Q: And the viability, T/C (second compound 0.316 µM, first compound 0.00949 µM)?
A: Its viability, T/C is 94.7%.

Q: What about the viability, T/C (second compound 0.316 µM, first compound 0.03 µM) of the same compound?
A: The viability, T/C was 91.1%.

Q: And the viability, T/C (second compound 0.316 µM, first compound 0.0949 µM)?
A: The viability, T/C was 90%.

Q: And the viability, T/C (second compound 0.316 µM, first compound 0.3 µM)?
A: Its viability, T/C is 77.6%.

Q: What about the viability, T/C (second compound 0.316 µM, first compound 0.949 µM) of the same compound?
A: Its viability, T/C is 78.5%.

Q: What about the viability, T/C (second compound 0.316 µM, first compound 3 µM) of the same compound?
A: Its viability, T/C is 83.3%.

Q: What about the viability, T/C (second compound 1 µM, first compound 0.00949 µM) of the same compound?
A: The viability, T/C was 87.2%.

Q: What about the viability, T/C (second compound 1 µM, first compound 0.03 µM) of the same compound?
A: The viability, T/C was 88.8%.

Q: What about the viability, T/C (second compound 1 µM, first compound 0.0949 µM) of the same compound?
A: The viability, T/C was 84.9%.

Q: And the viability, T/C (second compound 1 µM, first compound 0.3 µM)?
A: The viability, T/C was 76.4%.

Q: What about the viability, T/C (second compound 1 µM, first compound 0.949 µM) of the same compound?
A: Its viability, T/C is 75.4%.

Q: What about the viability, T/C (second compound 1 µM, first compound 3 µM) of the same compound?
A: The viability, T/C was 75.8%.

Q: What about the viability, T/C (second compound 3.16 µM, first compound 0.00949 µM) of the same compound?
A: Its viability, T/C is 64.4%.

Q: What about the viability, T/C (second compound 3.16 µM, first compound 0.03 µM) of the same compound?
A: The viability, T/C was 66.7%.

Q: And the viability, T/C (second compound 3.16 µM, first compound 0.0949 µM)?
A: Its viability, T/C is 73.2%.

Q: And the viability, T/C (second compound 3.16 µM, first compound 0.3 µM)?
A: Its viability, T/C is 64.2%.

Q: What about the viability, T/C (second compound 3.16 µM, first compound 0.949 µM) of the same compound?
A: The viability, T/C was 62.8%.

Q: And the viability, T/C (second compound 3.16 µM, first compound 3 µM)?
A: Its viability, T/C is 52.7%.

Q: And the viability, T/C (second compound 10 µM, first compound 0.00949 µM)?
A: The viability, T/C was 49.2%.

Q: What about the viability, T/C (second compound 10 µM, first compound 0.03 µM) of the same compound?
A: The viability, T/C was 49.6%.

Q: What about the viability, T/C (second compound 10 µM, first compound 0.0949 µM) of the same compound?
A: The viability, T/C was 52.7%.

Q: And the viability, T/C (second compound 10 µM, first compound 0.3 µM)?
A: Its viability, T/C is 49.3%.

Q: And the viability, T/C (second compound 10 µM, first compound 0.949 µM)?
A: The viability, T/C was 41.1%.

Q: And the viability, T/C (second compound 10 µM, first compound 3 µM)?
A: The viability, T/C was 45.3%.
